{"source": "patent US20050289665A1", "about": "“Method for disinfecting seed” (priority 2004, published 2005)", "key": {"[1]": {"system": "microbial contaminants on the seeds", "conditions": "loblolly pine, 30% H2O2 15 minutes; for contamination of whole seed: TSYG broth at 30° C.", "protocol": "Methods: The following disinfection treatment was used for loblolly pine seed: • (1) Seed was placed in a tea strainer (about 100 seed/strainer) and soaked in deionized water for one hour with agitation; • (2) The seed in the tea strainer was soaked in a 10% solution of Liquinox (VWR Scientific) for one hour with agitation; • (3) The seed in the tea strainer was soaked in 30% H2O2 on a rotary shaker in a fume hood for 15 minutes; • (4) The seed in the tea strainer was rinsed 8 times for 10 minutes each in sterile water in a laminar flow hood; • (5) The seed in the tea strainer was hydrated in sterile water for 24 hours in a laminar flow hood; and • (6) The seed in the tea strainer was rinsed three times with sterile water for 10 minutes each.\nAfter disinfection and hydration, seed were removed from the tea strainers and placed on a sterile Petri plate. Seed were individually removed with surface-sterilized latex gloves, cracked using autoclaved Vice-Grips, and placed in sterile quadrant Petri plates (2 seeds/quadrant) containing a drop of sterile water to avoid dehydration before dissection. After dissection, 50 whole seed and 50 dissected embryos were incubated in TSYG broth (Trypticase Soy Broth 30 g/l, Yeast Extract 5 g/l, Glucose 10 g/l, and—for a solid Petri plate or agar slant—Agar 15 g/l) and examined on a daily basis for signs of contamination during an eight week incubation period at 30° C."}, "[2]": {"system": "microbial contaminants on the seeds", "experiment": "Contamination of dissected embryos after disinfection of loblolly pine seed (Example 5)", "assay_type": "cell-based", "conditions": "treatment 1: 30% hydrogen peroxide 15 min, vacuum, day 24 after dissection", "protocol": "(§1) Methods: The first treatment was identical to the first treatment (hydrogen peroxide) described in EXAMPLE 4, and the second treatment was identical to the fifth treatment ([…]) described in EXAMPLE 4. Seed coats were cracked and removed, and the de-coated seeds were placed in sterile glass Petri plates (one plate/treatment) containing wet filter paper until dissection. Dissection was performed in quadrant Petri plates. A maximum of four seed were dissected per quadrant. […] Organ lengths and normalcy were assessed after 24 days on the medium."}, "loblolly pine seed": {"system": "loblolly pine seed", "experiment": "Germination of dissected embryos on medium 185 (normalcy, organ lengths, epicotyl presence) after disinfection of loblolly pine seed (Example 5)", "conditions": "treatment 1: 30% hydrogen peroxide 15 min, vacuum, day 24 after dissection", "protocol": "as §1"}}, "note": "Read-outs that look alike come from different tables or passages of the source.", "data": [{"smiles": "OO", "note": "[hydrogen peroxide]", "values": [{"measurement": "contamination of whole seed", "setting": "[1]; after eight weeks of incubation", "value": 68, "unit": "%"}, {"measurement": "contamination of whole seed", "setting": "[1]; by the third day of incubation, 4 out of 50 whole seed", "value": 8, "unit": "%"}, {"measurement": "contamination of dissected embryos", "setting": "[1]; TSYG broth, eight week incubation at 30° C.", "value": "no contamination"}, {"measurement": "Contamination (%)", "setting": "[2]", "value": 0, "unit": "%"}, {"measurement": "Cotyledon Length (cm)", "setting": "loblolly pine seed", "value": 0.7, "unit": "cm"}, {"measurement": "Epicotyl Presence (%)", "setting": "loblolly pine seed", "value": 65.7, "unit": "%"}, {"measurement": "Hypocotyl Length (cm)", "setting": "loblolly pine seed", "value": 1.2, "unit": "cm"}, {"measurement": "Normalcy (%)", "setting": "loblolly pine seed", "value": 85.7, "unit": "%"}, {"measurement": "Radicle Length (cm)", "setting": "loblolly pine seed", "value": 3.4, "unit": "cm"}]}]}
